From article PMC5623949, “Exploiting the 2-Amino-1,3,4-thiadiazole Scaffold To Inhibit Trypanosoma brucei Pteridine Reductase in Support of Early-Stage Drug Discovery” (ACS Omega, 2017) come the findings set out here.

Structures are written as SMILES.

For this data set, the system named is THP-1-derived macrophages. The experiment in a line: Cytotoxicity against THP-1 macrophages (MTT). Format: cell-based, human. The conditions noted are these: 100 μM. How it is done: The effect of compounds 3k, 4h, 4m, and 4o on THP-1-derived macrophages was assessed by the colorimetric MTT assay [3-(4,5-dimethylthiazol-2-yl)-2,5-diphenyl tetrazolium bromide]. Briefly, 1 × 10^6 THP-1 cells were differentiated into macrophages by addition of 20 ng/mL of phorbol-myristate 13-acetate (PMA, Sigma-Aldrich) for 18 h, followed by replacement with a fresh medium and further incubation for 24 h. The cells were incubated with compounds ranging from 100 to 3 μM after dilution in the RPMI complete medium containing a maximum amount of 1% DMSO. After incubation for 72 h at 37 °C and 5% CO2, the medium was removed and 0.5 mg/mL MTT solution was added. The plates were incubated for 4 additional hours to allow viable cells to convert MTT into a purple formazan product. Solubilization of formazan crystals was achieved by addition of 2-propanol, and absorbance was read at 570 nm using a Synergy 2 multi-mode reader (BioTek).

As to `Nc1nnc(NCc2ccc(-c3ccccc3)cc2)s1` [4m], the “toxicity in THP-1 cells alone vs combination with equimolar MTX” value is “no increase in toxicity”.
